Assay results as given in patent US20260262643A1, “HERBICIDAL BENZOXAZINES” (FMC CORPORATION, priority 2022, published 2026).

Key:
ryegrass, Italian [1] = experiment: Test C postemergence; assay type: in vivo, Lolium multiflorum; conditions: 10 days
Outline: (§1)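 Visual injury ratings on a 0–100 scale (100 = complete control) were made against untreated controls 10 days after treatment in the greenhouse. Compounds, formulated with surfactant in non-phytotoxic solvent, were sprayed on soil preemergence or onto one- to two-leaf plants 2–10 cm tall postemergence.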

soybean [2] = experiment: Test C preemergence; assay type: in vivo, Glycine max; conditions: 0 to 100 scale (0 no effect, 100 complete control)
Outline: as §1

pigweed, palmer [3] = experiment: Test C preemergence; assay type: in vivo, Amaranthus palmeri; conditions: 0 to 100 scale (0 no effect, 100 complete control)
Outline: as §1

oat, wild [4] = experiment: Test C preemergence; assay type: in vivo, Avena fatua; conditions: 0 to 100 scale (0 no effect, 100 complete control)
Outline: as §1

ducksalad = experiment: Test D flooded paddy test; assay type: in vivo, Heteranthera limosa; conditions: 250 g ai/ha, applied to paddy water, visual rating after 13 to 14 days, scale 0 to 100 (0 no effect, 100 complete control)
Outline: (§2)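 Visual ratings from 0, meaning no effect, to 100, meaning complete control, were assigned against untreated controls 13 to 14 days after compounds were added to the floodwater of pots kept 3 cm deep, with plants at the 2-leaf stage.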

ryegrass, Italian [5] = experiment: Test C preemergence; assay type: in vivo, Lolium multiflorum; conditions: 0 to 100 scale (0 no effect, 100 complete control)
Outline: as §1

ragweed [6] = experiment: Test C postemergence; assay type: in vivo, Ambrosia artemisiifolia; conditions: 10 days
Outline: as §1

wheat [7] = experiment: Test C preemergence; assay type: in vivo, Triticum aestivum; conditions: 0 to 100 scale (0 no effect, 100 complete control)
Outline: as §1

green foxtail [8] = experiment: Test C postemergence; assay type: in vivo, Setaria viridis; conditions: 10 days
Outline: as §1

barnyardgrass [9] = experiment: Test C postemergence; assay type: in vivo, Echinochloa crusgalli; conditions: 10 days
Outline: as §1

blackgrass [10] = experiment: Test C postemergence; assay type: in vivo, Alopecurus myosuroides; conditions: 10 days
Outline: as §1

kochia [11] = experiment: Test C preemergence; assay type: in vivo, Bassia scoparia; conditions: 0 to 100 scale (0 no effect, 100 complete control)
Outline: as §1

corn [12] = experiment: Test C preemergence; assay type: in vivo, Zea mays; conditions: 0 to 100 scale (0 no effect, 100 complete control)
Outline: as §1

horseweed = experiment: Test C postemergence; assay type: in vivo, Erigeron canadensis; conditions: 10 days
Outline: as §1

blackgrass [13] = experiment: Test C preemergence; assay type: in vivo, Alopecurus myosuroides; conditions: 0 to 100 scale (0 no effect, 100 complete control)
Outline: as §1

barnyardgrass [14] = experiment: Test D flooded paddy test; assay type: in vivo, Echinochloa crus-galli; conditions: 250 g ai/ha, applied to paddy water, visual rating after 13 to 14 days, scale 0 to 100 (0 no effect, 100 complete control)
Outline: as §2

ragweed [15] = experiment: Test C preemergence; assay type: in vivo, Ambrosia artemisiifolia; conditions: 0 to 100 scale (0 no effect, 100 complete control)
Outline: as §1

corn [16] = experiment: Test C postemergence; assay type: in vivo, Zea mays; conditions: 10 days
Outline: as §1

barnyardgrass [17] = experiment: Test C preemergence; assay type: in vivo, Echinochloa crusgalli; conditions: 0 to 100 scale (0 no effect, 100 complete control)
Outline: as §1

galium = experiment: Test C postemergence; assay type: in vivo, Galium aparine; conditions: 10 days
Outline: as §1

sedge, umbrella = experiment: Test D flooded paddy test; assay type: in vivo, Cyperus difformis; conditions: 250 g ai/ha, applied to paddy water, visual rating after 13 to 14 days, scale 0 to 100 (0 no effect, 100 complete control)
Outline: as §2

green foxtail [18] = experiment: Test C preemergence; assay type: in vivo, Setaria viridis; conditions: 0 to 100 scale (0 no effect, 100 complete control)
Outline: as §1

wheat [19] = experiment: Test C postemergence; assay type: in vivo, Triticum aestivum; conditions: 10 days
Outline: as §1

kochia [20] = experiment: Test C postemergence; assay type: in vivo, Bassia scoparia; conditions: 10 days
Outline: as §1

oat, wild [21] = experiment: Test C postemergence; assay type: in vivo, Avena fatua; conditions: 10 days
Outline: as §1

pigweed, palmer [22] = experiment: Test C postemergence; assay type: in vivo, Amaranthus palmeri; conditions: 10 days
Outline: as §1

soybean [23] = experiment: Test C postemergence; assay type: in vivo, Glycine max; conditions: 10 days
Outline: as §1

rice = experiment: Test D flooded paddy test; assay type: in vivo, Oryza sativa; conditions: 250 g ai/ha, applied to paddy water, visual rating after 13 to 14 days, scale 0 to 100 (0 no effect, 100 complete control)
Outline: as §2

[24] = 125 g ai/ha, postemergence, 0 to 100 scale, 0 no effect, 100 complete control
[25] = Postemergence, 500 g ai/ha, visual 0 to 100 scale (0 no effect, 100 complete control)
[26] = Preemergence, 500 g ai/ha, visual rating after 10 days
[27] = Test C, preemergence, 125 g ai/ha

Q: Which “Plant response rating, Ryegrass, Italian” value (ryegrass, Italian [1]; [24]) does the source give for `COc1c(C)cc(-n2cnc(C(C)C)n2)cc1C(=O)N1C[C@H](C)Oc2c(Cl)cccc21` [Compound 260] here?
A: 60

Q: And the “Plant response rating, Ryegrass, Italian” value (ryegrass, Italian [1]; [25])?
A: 60

Q: And the “Plant response rating, Soybean” value (soybean [2]; [26])?
A: 40

Q: What about the “Soybean plant response rating” value (soybean [2]; [27]) of the same compound?
A: 10

Q: What about the “Plant response rating, Pigweed, Palmer” value (pigweed, palmer [3]; [26]) of the same compound?
A: 100

Q: And the “Pigweed, Palmer plant response rating” value (pigweed, palmer [3]; [27])?
A: 40

Q: What about the “Plant response rating, Oat, Wild” value (oat, wild [4]; [26]) of the same compound?
A: 90

Q: And the “Oat, Wild plant response rating” value (oat, wild [4]; [27])?
A: 30

Q: And the “Plant response rating, Ducksalad (Flood)” value (ducksalad)?
A: 0

Q: What about the “Plant response rating, Ryegrass, Italian” value (ryegrass, Italian [5]; [26]) of the same compound?
A: 90

Q: And the “Ryegrass, Italian plant response rating” value (ryegrass, Italian [5]; [27])?
A: 80

Q: And the “Plant response rating, Ragweed” value (ragweed [6]; [24])?
A: 0

Q: And the “Plant response rating, Ragweed” value (ragweed [6]; [25])?
A: 0

Q: And the “Plant response rating, Wheat” value (wheat [7]; [26])?
A: 20

Q: And the “Wheat plant response rating” value (wheat [7]; [27])?
A: 20

Q: What about the “Plant response rating, Foxtail, Green” value (green foxtail [8]; [24]) of the same compound?
A: 10

Q: What about the “Plant response rating, Foxtail, Green” value (green foxtail [8]; [25]) of the same compound?
A: 60

Q: And the “Plant response rating, Barnyardgrass” value (barnyardgrass [9]; [24])?
A: 10

Q: What about the “Plant response rating, Barnyardgrass” value (barnyardgrass [9]; [25]) of the same compound?
A: 50

Q: And the “Plant response rating, Blackgrass” value (blackgrass [10]; [24])?
A: 20

Q: What about the “Plant response rating, Blackgrass” value (blackgrass [10]; [25]) of the same compound?
A: 30

Q: What about the “Plant response rating, Kochia” value (kochia [11]; [26]) of the same compound?
A: 80

Q: What about the “Kochia plant response rating” value (kochia [11]; [27]) of the same compound?
A: 60

Q: What about the “Plant response rating, Corn” value (corn [12]; [26]) of the same compound?
A: 10

Q: What about the “Corn plant response rating” value (corn [12]; [27]) of the same compound?
A: 0

Q: What about the “Plant response rating, Horseweed” value (horseweed; [24]) of the same compound?
A: 0

Q: What about the “Plant response rating, Horseweed” value (horseweed; [25]) of the same compound?
A: 10

Q: And the “Plant response rating, Blackgrass” value (blackgrass [13]; [26])?
A: 80

Q: What about the “Blackgrass plant response rating” value (blackgrass [13]; [27]) of the same compound?
A: 60

Q: And the “Plant response rating, Barnyardgrass (Flood)” value (barnyardgrass [14])?
A: 0

Q: And the “Plant response rating, Ragweed” value (ragweed [15]; [26])?
A: 40

Q: What about the “Ragweed plant response rating” value (ragweed [15]; [27]) of the same compound?
A: 0

Q: What about the “Plant response rating, Corn” value (corn [16]; [24]) of the same compound?
A: 10

Q: And the “Plant response rating, Corn” value (corn [16]; [25])?
A: 60

Q: What about the “Plant response rating, Barnyardgrass” value (barnyardgrass [17]; [26]) of the same compound?
A: 90

Q: What about the “Barnyardgrass plant response rating” value (barnyardgrass [17]; [27]) of the same compound?
A: 70

Q: What about the “Plant response rating, Galium” value (galium; [24]) of the same compound?
A: 90

Q: And the “Plant response rating, Galium” value (galium; [25])?
A: 100

Q: And the “Plant response rating, Sedge, Umbrella (Flood)” value (sedge, umbrella)?
A: 0

Q: What about the “Plant response rating, Foxtail, Green” value (green foxtail [18]; [26]) of the same compound?
A: 100

Q: And the “Foxtail, Green plant response rating” value (green foxtail [18]; [27])?
A: 100

Q: What about the “Plant response rating, Wheat” value (wheat [19]; [24]) of the same compound?
A: 20

Q: What about the “Plant response rating, Wheat” value (wheat [19]; [25]) of the same compound?
A: 20

Q: And the “Plant response rating, Kochia” value (kochia [20]; [24])?
A: 60

Q: And the “Plant response rating, Kochia” value (kochia [20]; [25])?
A: 90

Q: What about the “Plant response rating, Oat, Wild” value (oat, wild [21]; [24]) of the same compound?
A: 30

Q: And the “Plant response rating, Oat, Wild” value (oat, wild [21]; [25])?
A: 50

Q: And the “Plant response rating, Pigweed, Palmer” value (pigweed, palmer [22]; [24])?
A: 10

Q: And the “Plant response rating, Pigweed, Palmer” value (pigweed, palmer [22]; [25])?
A: 50

Q: And the “Plant response rating, Soybean” value (soybean [23]; [24])?
A: 100

Q: And the “Plant response rating, Soybean” value (soybean [23]; [25])?
A: 100

Q: What about the “Plant response rating, Rice (Flood)” value (rice) of the same compound?
A: 0
